Data set [1] can be described thus: Optical properties and NIR-II quantum yield in 5% BSA saline. In kind it is physicochemical. Here is the method: Fluorescence Quantum yield measurement and physicochemical properties: The absorption and emission spectra of fluorophores were measured in 5% BSA saline using UV/Vis/NIR spectrometers (USB2000+VIS+NIR+ES and Flame-NIR, Ocean Insight, Dunedin, FL). Fluorescence emission spectra were collected by NIR excitation with an 808-nm laser. To calculate NIR-II fluorescence quantum yield, the following equation was used:
[formula] • where QYsample is the QY of SH1, QYref is the QY of ICG in 30% FBS supplemented with 50 mM HEPES, nsample and nref are the refractive indices of SH1 and ICG solutions which are both water (1.33) in this case. In silico calculations of molecular weight, the distribution coefficient (LogD at pH 7.4), surface molecular charge, polarizability, and 3D molecular surface area were performed using MarvinSketch (ChemAxon, Budapest, Hungary).

Data set [2] concerns orthotopic lung cancer (LLC cell). Description: Orthotopic lung tumor targeting. It counts as in vivo, mouse. Particulars: 50 nmol, 48 h prior to imaging. The text has this: General NIR-II fluorescence imaging: A 640×512-pixel InGaAs camera (Ninox640, Raptor Photonics) and macro zoom lens (0-10×; Navitar Zoom 7000 with SWIR coating) along with 900, 1070, 1100, and 1200 nm long-pass (LP) filters from either Thorlab or Edmund optics were used to collect the NIR-II signal. InGaAs camera played a role as an open-air imaging system along with the support of the FLARE system. An 808 nm fiber-coupled diode laser ([…] at the sample) was used as an excitation source. Data acquisition was done using in-house developed software. The mice fur on the region of interest was shaved prior to imaging using a clipper and removed completely using a depilatory cream. 100 μL of SH1 in 5 w/v % BSA saline ([…]) was injected through the tail vein. Mice were imaged with intact skin using InGaAs camera. At least 3 mice were analyzed for each sample. […]
Statistical analysis: The fluorescence and background intensities of a region of interest over each tissue were quantified using customized imaging software and ImageJ v1.48 (National Institutes of Health, Bethesda, MD). The signal-to-background ratio (SBR) was calculated as SBR=fluorescence/background, where background was the fluorescence intensity of muscle. […] The differences among groups were determined using one-way ANOVA analysis to assess the statistical differences among more than two groups. […]

Data set [3] in a line: Optical study in EtOH, DMSO, HEPES and PBS. In kind it is physicochemical. Here is the method:
Optical Study, Photostability, Physicochemical Properties, and DFT Calculation: 1 mM stock solution in DMSO of the synthesized fluorophores was prepared before starting any spectral measurement. Optical properties for the synthesized fluorophores were measured in four different solvents (EtOH, DMSO, HEPES, and PBS). Absorbance spectra were measured in a Varian Cary 50 absorbance spectrophotometer (190-1100 nm). Fluorescence emission and photostability were measured and emission spectra were recorded on a Shimadzu RF-5301PC spectrofluorometer. Physicochemical properties (Log D, molecular mass, TPSA, H bond D/A, polarizability, molecular volume, and rotatable bonds) were predicted by ChemAxon (JChem plugin). Theoretical calculations of frontier molecular orbitals (FMOs) for the optimized structures of selected fluorophores were calculated based on DFT calculations at the B3LYP/6-311G(d,p) level.
In vivo success of a contrast agent can depend on the absorption and emission profiles, molar extinction coefficient, quantum yield, molecular brightness, physicochemical properties, and photochemical stability. Different types of polymethine bridges can have an impact on the structural geometry of the fluorophores and the absorption and emission profiles. Optical properties were measured in polar protic EtOH, polar aprotic DMSO, and two buffer solutions, phosphate-buffered saline (PBS, PH ˜7.4) and 4-(2-hydroxyethyl)-1-piperazine-ethanesulfonic acid (HEPES, PH ˜7.4). Organic solvents such as ethanol (EtOH) and dimethyl sulfoxide (DMSO) are often used in spectroscopic experiments to observe the absorption and emission maximum, whereas buffer solvents PBS and HEPES were used to mimic the biological environment, as these synthesized fluorophores are intended to be used in bioimaging. The absorbance profiles of these fluorophores were recorded at various concentrations (0.8, 1.6, 2.4, 3.2, 4.0 μM) and the absorbance values obtained were plotted against each of the concentrations. […] Fluorophores 18-21 refer to the labels in Example 4 and FIG. 7D.
The molar extinction coefficient is an intrinsic property of any fluorophore and can be important for high image resolution. […] These properties vary with the structure change and are difficult to predict beforehand. The optical properties of the synthesized fluorophores were measured in various media. All measurements were performed in 2 different organic solvents (EtOH and DMSO) and 2 different buffer (HEPES and PBS), and ICG was used as a reference (ΦICG=0.043).

Turning to `CCCCN1/C(=C/C=C2\CCCC(/C=C/C3=[N+](CCCC)c4ccc(Cl)cc4C3(C)C)=C2Cl)C(C)(C)c2cc(Cl)ccc21` [SH1, 1-butyl-2-((E)-2-((E)-3-(2-((E)-1-butyl-5-chloro-3,3-dimethylindolin-2-ylidene)ethylidene)-2-chlorocyclohex-1-en-1-yl)vinyl)-5-chloro-3,3-dimethyl-3H-indol-1-ium], in data set [1] (5% BSA saline), the “NIR-II tail emission up to” value is listed as approximately 1250 nm, the extinction coefficient is reported as 333,600 M^−1 cm^−1 and the “fluorescence emission maximum (NIR-I)” value is 820 nm. The same compound returned a quantum yield in data set [1] (5 w/v % BSA saline) of 11%. For the same compound, in data set [1] (808 nm excitation, 1,070 nm LP), the “brightness in the NIR-II region relative to ICG” value is listed as 2.2 fold and the “brightness in the NIR-II region relative to IR-780” value is 1.7 fold. In addition, in data set [1] (NIR-II region), the “fluorescence brightness in the NIR-II region compared with ICG” value came out at 225%. In addition, in data set [2], the “TBR against normal tissue” value worked out at 47.3 and the “TBR against the lung” value was 3.12. Also, the molar extinction coefficient in data set [3] (DMSO) is on record as 203,000 cm^−1 M^−1. In data set [3] (EtOH), the molar extinction coefficient was 270,000 cm^−1 M^−1. In data set [3] (HEPES), the Stokes shift came to 140 nm, the absorbance maximum is 661 nm, the emission wavelength was 802 nm and the molar extinction coefficient was 44,000 cm^−1 M^−1. For the same compound, the molar extinction coefficient in data set [3] (PBS) was 41,000 cm^−1 M^−1.

The values above are taken from patent publication US20260166182A1, “CYANINE-BASED FLUOROPHORES” (The General Hospital Corporation, priority 2022, published 2026).
